# Measurements from patent publication US11020405B2, “Method for prevention or treatment of diabetic complications” (KANGWON NATIONAL UNIVERSITY UNIVERSITY-INDUSTRY COOPERATION …, priority 2017, dated 2021).
# Experiments:
# [1] = test system: human retinal endothelial cells (HRECs); assay: Analysis of ROS of cells (H2DCFDA fluorescence); assay type: cell-based
# Description: (§1) Purchased from Applied Cell Biology Research Institute (Cell Systems, Kirkland, Wash.), human retinal endothelial cells (HRECs) were cultured in an M19 medium, containing 20% FBS, 3 ng/mL bFGF, 5 U/mL heparin, 100 U/mL penicillin and […], in a 2% gelatin-coated plate.
# (§2) Before the following Test Examples 2 to 7, the HRECs were cultured for 6 hr in a medium containing 1% FBS and an antibiotic agent, thus preparing HRECs of Test Example 1.
# With reference to FIG. 3A, the HRECs of Test Example 1 were treated with 0 to 20 μM midazolam, cultured for 30 min, treated with 10 ng/mL VEGF and 10 μM H2DCFDA (Molecular Probes, Eugene, Oreg.), stained for 10 min in a phenol-red-free low-serum medium, and then measured using confocal microscopy to thus determine the fluorescence intensity of single cells.
# With reference to FIG. 3B, the HRECs of Test Example 1 were subjected to the respective treatments below and cultured for 30 min. Upon treatment with 10 ng/mL VEGF, treatment with 10 μM H2DCFDA was performed therewith, or alternatively, treatment with 10 μM H2DCFDA was performed alone, followed by staining for 10 min in a phenol-red-free low-serum medium and then measurement via confocal microscopy to thus determine the fluorescence intensity of single cells.
# β-catenin = assay: Analysis of adherens junction (β-catenin staining); assay type: cell-based, human; conditions: HRECs, 10 ng/mL VEGF 90 min with 20 μM midazolam, 5 μM BAPTA-AM, 1 mM NAC, 0.5 μM Trolox, 50 μM cystamine or 20 μM MDC (FIGS. 8, 9)
# Description: as §1, §2
# The HRECs of Test Example 1 were subjected to the respective treatments below and cultured for 30 min. Here, treatment with 10 ng/mL VEGF was performed for 90 min. Thereafter, the HRECs were treated with 1 mM 5-(biotinamido)pentylamine, incubated for 1 hr, fixed with 3.7% formaldehyde, treated with 0.2% triton X-100, treated with a blocking solution containing 138 mM NaCl, 0.1% Tween 20 and 2% BSA dissolved in a 20 mM Tris (pH 7.6) buffer, incubated for 30 min, incubated with a monoclonal β-catenin antibody (1:200; Santa Cruz Biotechnology) for 12 hr or more, incubated with a FITC-conjugated goat anti-mouse antibody, and measured using confocal microscopy. Some (the following i), ii), iii), iv)) of the results are shown in FIG. 8, and the β-catenin concentrations in the portions represented by the dotted lines in FIG. 8 are shown in FIG. 9. With reference to FIG. 9, 10 randomly selected cells were measured to determine the fluorescence intensity of single cells and thus quantify β-catenin.
# β-catenin, which is a protein that mediates adherens junction like VE-cadherin, was analyzed to evaluate adherens junction.
# lungs of diabetic mice = assay: Hyperglycemia-induced pulmonary vascular leakage in diabetic mice (FITC-dextran); assay type: in vivo, C57BL/6 mice; conditions: 10 mg/kg midazolam intraperitoneal daily for 2 days (FIG. 21)
# Description: FIGS. 21A and 21B show the preventive effects of midazolam against hyperglycemia-induced pulmonary vascular leakage in diabetic mice. Six-week-old male C57BL/6 mice were administered with streptozotocin (150 mg/kg body weight) to give diabetic mouse models. Two weeks after streptozotocin injection, diabetic mice were administered 10 mg/kg midazolam by intraperitoneal injection daily for 2 days, and vascular leakage was investigated. The body weight of mice were measure in normal (19.9±0.3 g), diabetic (17.7±0.3 g), and midazolam supplemented diabetic mice (17.6±0.3 g). Blood glucose levels were also monitored in normal (123.5±6.5 mg/dL), diabetic (505.0±89.0 mg/dL), and midazolam supplemented diabetic mice (500.3±63.3 mg/dL). The mice were anesthetized with 3% isoflurane, and 1.25 mg of FITC-dextran was injected into the right ventricle of each mouse and allowed to circulate for 5 min. The lungs were dissected, fixed, and embedded in OCT compound. Cryosections of lungs were stained with isolectin B4 and DAPI. Representative images of vascular leakage in lungs are shown in additional FIG. 21A. Scale bars, 100 μm. The results of vascular leakage quantitatively analyzed by measuring the fluorescence intensity of FITC-dextran in the lungs are shown in additional FIG. 21B (n=4 for normal and diabetic, n=6 for diabetic+Midazolam).
# TGase = assay: Identification of receptor of midazolam through TGase activity analysis; assay type: cell-based, human; conditions: HRECs
# Description: With reference to FIG. 11A, the HRECs of Test Example 1 were subjected to the respective treatments below, cultured for 2 hr, treated with 1 mM 5-(biotinamido)pentylamine, incubated for 1 hr, fixed with 3.7% formaldehyde, treated with 0.2% triton X-100, treated with a blocking solution containing 138 mM NaCl, 0.1% Tween 20 and 2% BSA dissolved in a 20 mM Tris (pH 7.6) buffer, incubated for 30 min, incubated with FITC-conjugated streptavidin (1:200, v/v) for 1 hr, and then measured using confocal microscopy to thus determine the fluorescence intensity of single cells.
# As will be described below, flumazenil was used as a GABAA receptor antagonist and PK11195 was used as a TSOP receptor antagonist.
# With reference to FIG. 11B, the HRECs of Test Example 1 were treated with 0 μM, 0.01 μM, 0.1 μM, 1 μM, 10 μM, 20 μM, and 50 μM flumazenil and 0 μM, 0.01 μM, 0.1 μM, 1 μM, 3 μM, 10 μM, and 30 μM PK11195, cultured for 1 hr, treated with 20 μM midazolam, cultured for 30 min, treated with 10 ng/ml VEGF, incubated for 10 min, treated with 1 mM 5-(biotinamido)pentylamine, incubated for 1 hr, fixed with 3.7% formaldehyde, treated with 0.2% triton X-100, treated with a blocking solution containing 138 mM NaCl, 0.1% Tween 20 and 2% BSA dissolved in a 20 mM Tris (pH 7.6) buffer, incubated for 30 min, incubated with FITC-conjugated streptavidin (1:200, v/v) for 1 hr, and then measured using confocal microscopy to thus determine the fluorescence intensity of single cells.
smiles,measurement,setting,value
Cc1ncc2n1-c1ccc(Cl)cc1C(c1ccccc1F)=NC2 [midazolam],"ROS concentration, concentration dependence","[1]; 0 to 20 μM midazolam 30 min, then 10 ng/mL VEGF (FIG. 3A)",ROS concentration was decreased with an increase in the concentration of midazolam
same,ROS concentration (VEGF-induced) compared to control,"[1]; 10 ng/mL VEGF with 20 μM midazolam, 5 μM BAPTA-AM, 1 mM NAC, 0.5 μM Trolox, 50 μM cystamine or 20 μM MDC (FIG. 3B)",no significant ROS concentration increase was observed
same,β-catenin concentration / adherens junction disruption due to VEGF,β-catenin,exhibited the effect of preventing the adherens junction disruption due to VEGF
same,pulmonary vascular leakage (FITC-dextran extravasation),lungs of diabetic mice,blocked by midazolam administration
same,TGase activity (VEGF-induced) compared to control,"TGase; 20 μM midazolam 10 min then 10 ng/ml VEGF, no washing (FIG. 11A)",no significant TGase activity increase was observed
same,"TGase activity (VEGF-induced, after washing)","TGase; 20 μM midazolam 30 min, washing with serum-free medium, then 10 ng/ml VEGF (FIG. 11A)",TGase activity was increased
